# Laboratory results as given in patent publication US10765114B2, “4-amino-6-(pyridyl and 2-substitutedphenyl)-picolinates and 6-amino-2-(pyridyl and 2-substitutedphenyl)-pyrimidine-4-carboxylates and their use as herbicides” (Dow AgroSciences LLC, priority 2013, dated 2020).
# Read-outs that look alike come from different tables or passages of the source.
# What was measured:
# [1] = system: Key Grass and Sedge Weeds as well as Grass Crops; assay: Post-Emergent Test II (Table 6); assay type: in vivo; conditions: post-emergence, 336 h, 14 days after application; for pest or weed control at 70 g/ha: 70 g ai/ha; for pest or weed control at 140 g/ha: 140 g ai/ha
# Outline: (§1)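 Plants at first or second true-leaf stage, grown 7-21 days in greenhouse, were sprayed post-emergence at 187 L/ha with compounds in acetone/DMSO/water/crop oil/surfactant mixture at the high rate and ½× to 1/16× dilutions. Injury scored visually after 14 days, 0 (none) to 100% (complete kill), versus untreated plants.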
# [2] = system: Key Broadleaf Weed and Crop Species; assay: Post-Emergent Test II (Table 5); assay type: in vivo; conditions: post-emergence, 336 h; for pest or weed control at 70 g/ha: application rate 70 (kg ai/ha; footnote: g ai/ha); for pest or weed control at 140 g/ha: application rate 140 (kg ai/ha; footnote: g ai/ha)
# Outline: as §1
# [3] = CYPSS, read-out: Visual Growth Reduction (%) 14 Days After Application CYPSS
# [4] = DIGSA: crabgrass (Digitaria sanguinalis), read-out: Visual Growth Reduction (%) 14 Days After Application DIGSA
# [5] = ECHSS, read-out: Visual Growth Reduction (%) 14 Days After Application ECHSS
# [6] = ORYSS (crop), read-out: Visual Growth Reduction (%) 14 Days After Application ORYSS
# [7] = SETFA: giant foxtail (Setaria faberi), read-out: Visual Growth Reduction (%) 14 Days After Application SETFA
# [8] = SORVU: grain sorghum (Sorghum vulgare), read-out: Visual Growth Reduction (%) 14 Days After Application SORVU
# [9] = TRZSS (crop), read-out: Visual Growth Reduction (%) 14 Days After Application TRZSS
# [10] = ZEAMX: maize, corn (Zea mays), read-out: Visual Growth Reduction (%) 14 Days After Application ZEAMX
# [11] = Abutilon theophrasti, ABUTH: velvetleaf (Abutilon theophrasti), read-out: Visual Growth Reduction (%) 14 Days After Application ABUTH
# [12] = Amaranthus retroflexus, AMARE: redroot pigweed (Amaranthus retroflexus), read-out: Visual Growth Reduction (%) 14 Days After Application AMARE
# [13] = Brassica napus, BRSSS: oilseed rape, canola (Brassica napus), read-out: Visual Growth Reduction (%) 14 Days After Application BRSSS
# [14] = Chenopodium album, CHEAL: lambsquarters (Chenopodium album), read-out: Visual Growth Reduction (%) 14 Days After Application CHEAL
# [15] = Euphorbia heterophylla, EPHHL: wild poinsettia (Euphorbia heterophylla), read-out: Visual Growth Reduction (%) 14 Days After Application EPHHL
# [16] = Helianthus annuus, HELAN: sunflower (Helianthus annuus), read-out: Visual Growth Reduction (%) 14 Days After Application HELAN
# [17] = Viola tricolor, VIOTR: wild pansy (Viola tricolor), read-out: Visual Growth Reduction (%) 14 Days After Application VIOTR
SMILES,"pest or weed control at 70 g/ha [1, 3] [%]","pest or weed control at 140 g/ha [1, 3] [%]","pest or weed control at 70 g/ha [1, 4] [%]","pest or weed control at 140 g/ha [1, 4] [%]","pest or weed control at 70 g/ha [1, 5] [%]","pest or weed control at 70 g/ha [1, 6] [%]","pest or weed control at 140 g/ha [1, 6] [%]","pest or weed control at 140 g/ha [1, 7] [%]","pest or weed control at 70 g/ha [1, 8] [%]","pest or weed control at 140 g/ha [1, 8] [%]","pest or weed control at 70 g/ha [1, 9] [%]","pest or weed control at 140 g/ha [1, 9] [%]","pest or weed control at 70 g/ha [1, 10] [%]","pest or weed control at 140 g/ha [1, 10] [%]","pest or weed control at 70 g/ha [2, 11] [%]","pest or weed control at 140 g/ha [2, 11] [%]","pest or weed control at 70 g/ha [2, 12] [%]","pest or weed control at 70 g/ha [2, 13] [%]","pest or weed control at 140 g/ha [2, 13] [%]","pest or weed control at 70 g/ha [2, 14] [%]",further results
"COC(=O)c1nc(-c2ccc(OC)nc2Cl)c(F)c(N)c1Cl [Compound 88, methyl 4-amino-2′,5-dichloro-3-fluoro-6′-methoxy-[2,3′-bipyridine]-6-carboxylate]",0 to 29,0 to 29,0 to 29,0 to 29,0 to 29,0 to 29,0 to 29,45 to 59,0 to 29,0 to 29,0 to 29,0 to 29,0 to 29,0 to 29,75 to 84,95 to 100,85 to 94,85 to 94,85 to 94,95 to 100,"pest or weed control at 140 g/ha [1, 5]: 0 to 29%; pest or weed control at 70 g/ha [1, 7]: 0 to 29%; pest or weed control at 140 g/ha [2, 14]: 95 to 100%; pest or weed control at 70 g/ha [2, 15]: 0 to 29%; pest or weed control at 140 g/ha [2, 15]: 0 to 29%; pest or weed control at 70 g/ha [2, 16]: 75 to 84%; pest or weed control at 140 g/ha [2, 16]: 85 to 94%; pest or weed control at 70 g/ha [2, 17]: 0 to 29%; pest or weed control at 140 g/ha [2, 17]: 0 to 29%; melting point: 164 to 165 °C"
Cc1ccc(-c2nc(C(=O)O)c(Cl)c(N)c2F)cn1 [Compound 85],0 to 29,0 to 29,0 to 29,0 to 29,45 to 59,0 to 29,0 to 29,0 to 29,0 to 29,0 to 29,0 to 29,0 to 29,0 to 29,0 to 29,0 to 29,0 to 29,95 to 100,60 to 74,75 to 84,0 to 29,"pest or weed control at 70 g/ha [1, 7]: 0 to 29%; pest or weed control at 140 g/ha [2, 12]: 95 to 100%; pest or weed control at 140 g/ha [2, 14]: 45 to 59%; pest or weed control at 70 g/ha [2, 15]: 0 to 29%; pest or weed control at 140 g/ha [2, 15]: 0 to 29%; pest or weed control at 70 g/ha [2, 16]: 30 to 44%; pest or weed control at 140 g/ha [2, 16]: 45 to 59%; pest or weed control at 70 g/ha [2, 17]: 0 to 29%; pest or weed control at 140 g/ha [2, 17]: 0 to 29%; melting point: 186 to 187 °C"
COC(=O)c1nc(-c2cccnc2)c(F)c(N)c1Cl [Compound 50],0 to 29,0 to 29,0 to 29,0 to 29,0 to 29,0 to 29,0 to 29,60 to 74,0 to 29,0 to 29,0 to 29,0 to 29,0 to 29,0 to 29,0 to 29,0 to 29,0 to 29,0 to 29,30 to 44,75 to 84,"pest or weed control at 140 g/ha [1, 5]: 0 to 29%; pest or weed control at 140 g/ha [2, 12]: 95 to 100%; pest or weed control at 140 g/ha [2, 14]: 85 to 94%; pest or weed control at 70 g/ha [2, 15]: 0 to 29%; pest or weed control at 140 g/ha [2, 15]: 0 to 29%; pest or weed control at 70 g/ha [2, 16]: 85 to 94%; pest or weed control at 140 g/ha [2, 16]: 85 to 94%; pest or weed control at 70 g/ha [2, 17]: 0 to 29%; pest or weed control at 140 g/ha [2, 17]: 0 to 29%; melting point: 163 to 164 °C"
COC(=O)c1nc(-c2ccc(C)nc2F)c(F)c(N)c1Cl [Compound 76],0 to 29,0 to 29,75 to 84,85 to 94,75 to 84,0 to 29,0 to 29,60 to 74,45 to 59,45 to 59,30 to 44,45 to 59,0 to 29,95 to 100,85 to 94,85 to 94,95 to 100,85 to 94,95 to 100,95 to 100,"pest or weed control at 140 g/ha [1, 5]: 85 to 94%; pest or weed control at 70 g/ha [1, 7]: 45 to 59%; pest or weed control at 140 g/ha [2, 12]: 95 to 100%; pest or weed control at 140 g/ha [2, 14]: 95 to 100%; pest or weed control at 70 g/ha [2, 15]: 95 to 100%; pest or weed control at 70 g/ha [2, 16]: 85 to 94%; pest or weed control at 140 g/ha [2, 16]: 95 to 100%; pest or weed control at 70 g/ha [2, 17]: 0 to 29%; pest or weed control at 140 g/ha [2, 17]: 0 to 29%; melting point: 165 to 166 °C"
